Source: PubChem BioAssay AID328 (DTP/NCI, 2004)
Several values for one entry are separate records, joined by “and”; a condition that tells them apart may be missing. Equal entries are not always repeated. Toxic doses and inconclusive results are not listed. The calls were made as follows: active = survival T/C of 150% or more; inactive = T/C below 125% in these data.

System: BDF1 mice, P388 leukemia ip, median survival T/C
Experiment: NCI In Vivo Anticancer Drug Screen. Data for tumor model P388 Leukemia (intraperitoneal) in B6D2F1 (BDF1) mice
Conditions: endpoint: median survival time, higher = longer survival
How it was run: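 Vehicle-dosed animals serve as the reference; survival of compound-dosed, tumour-implanted mice is divided by it.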

[1] = dose: 100.0 mg/kg/injection, schedule: Q04DX003 (ip), vehicle: saline with Tween-80
[2] = dose: 200.0 mg/kg/injection, schedule: Q04DX003 (ip), vehicle: saline with Tween-80
[3] = dose: 400.0 mg/kg/injection, schedule: Q04DX003 (ip), vehicle: saline with Tween-80
[4] = dose: 50.0 mg/kg/injection, schedule: Q01DX009 (ip), vehicle: saline with Tween-80
[5] = dose: 100.0 mg/kg/injection, schedule: Q01DX009 (ip), vehicle: saline with Tween-80
[6] = dose: 200.0 mg/kg/injection, schedule: Q01DX009 (ip), vehicle: saline with Tween-80
[7] = dose: 12.5 mg/kg/injection, schedule: Q01DX009 (ip), vehicle: saline with Tween-80
[8] = dose: 25.0 mg/kg/injection, schedule: Q01DX009 (ip), vehicle: saline with Tween-80
[9] = dose: 100.0 mg/kg/injection, schedule: Q04DX003 (ip), vehicle: Klucel (hydroxypropylcellulose) (HPC)
[10] = dose: 200.0 mg/kg/injection, schedule: Q04DX003 (ip), vehicle: Klucel (hydroxypropylcellulose) (HPC)
[11] = dose: 400.0 mg/kg/injection, schedule: Q04DX003 (ip), vehicle: Klucel (hydroxypropylcellulose) (HPC)
[12] = dose: 100.0 mg/kg/injection, schedule: Q01DX009 (ip), vehicle: Klucel (hydroxypropylcellulose) (HPC)

Measured: T/C

CCC(C(O)c1cccs1)C(O)(C(F)(F)F)C(F)(F)F (stereo not given)
inactive: [1] 95 % of control | [2] 100 % of control

COc1cc2c(cc1OC(C)=O)C(=O)CCCC2
inactive: [1] 89 % of control | [2] 103 % of control | [3] 99 % of control

c1ccn2c(CSCc3nnc4ccccn34)nnc2c1
inactive: [4] 100 % of control | [5] 109 % of control | [6] 109 % of control

O=S(=O)(O)c1c(Cl)c(Cl)c(Cl)c(Cl)c1Cl
inactive: dose: 50.0 mg/kg/injection, schedule: Q04DX003 (ip), vehicle: suspension in saline 115 % of control | dose: 100.0 mg/kg/injection, schedule: Q04DX003 (ip), vehicle: suspension in saline 116 % of control | dose: 200.0 mg/kg/injection, schedule: Q04DX003 (ip), vehicle: suspension in saline 114 % of control

C[n+]1c(/C=C\C=C\N2CCCCC2)sc2ccccc21
inactive: dose: 0.16 mg/kg/injection, schedule: Q01DX009 (ip), vehicle: Klucel (hydroxypropylcellulose) (HPC) 114 % of control | dose: 0.31 mg/kg/injection, schedule: Q01DX009 (ip), vehicle: Klucel (hydroxypropylcellulose) (HPC) 108 % of control | dose: 0.63 mg/kg/injection, schedule: Q01DX009 (ip), vehicle: Klucel (hydroxypropylcellulose) (HPC) 119 % of control

CCCCNC(=O)Nc1ccc(N(CC)CC)cc1
inactive: [1] 100 % of control | [2] 100 % of control | [3] 90 % of control

Cc1ccc(-c2nc3ccccc3c(=O)n2/N=C/c2ccccc2)cc1
inactive: [4] 90 % of control | [5] 93 % of control

Nc1nc2c(ncn2C2CC(O)C(CO)O2)c(=O)n1N (stereo not given)
inactive: [7] 97 % of control | [8] 111 % of control | [4] 108 % of control | [5] 101 % of control

O=C1/C(=C/c2ccccc2)CCCC1/C=C/c1ccccc1 (stereo not given)
inactive: [9] 100 % of control | [10] 104 % of control | [11] 104 % of control

O=C(NS(=O)(=O)c1ccc(Cl)cc1)c1ccccc1
inactive: [7] 99 % of control | [8] 100 % of control and 109 % of control | [4] 103 % of control and 120 % of control | [5] 100 % of control | [6] 90 % of control

COC(=O)C1CSC2(CCCN(Cc3ccccc3)C2)N1 (stereo not given)
inactive: dose: 50.0 mg/kg/injection, schedule: Q01DX009 (ip), vehicle: saline 113 % of control | dose: 100.0 mg/kg/injection, schedule: Q01DX009 (ip), vehicle: saline 119 % of control | dose: 200.0 mg/kg/injection, schedule: Q01DX009 (ip), vehicle: saline 96 % of control

O=C1C(c2ccccc2)=S=C2Sc3ccccc3N12
inactive: dose: 25.0 mg/kg/injection, schedule: Q01DX009 (ip), vehicle: Klucel (hydroxypropylcellulose) (HPC) 100 % of control | dose: 25.0 mg/kg/injection, schedule: Q04DX003 (ip), vehicle: Klucel (hydroxypropylcellulose) (HPC) 90 % of control | dose: 50.0 mg/kg/injection, schedule: Q01DX009 (ip), vehicle: Klucel (hydroxypropylcellulose) (HPC) 110 % of control | dose: 50.0 mg/kg/injection, schedule: Q04DX003 (ip), vehicle: Klucel (hydroxypropylcellulose) (HPC) 90 % of control | [12] 105 % of control | [9] 100 % of control

COc1ccc(C(=O)C(C)C(O)(C(F)(F)F)C(F)(F)F)cc1 (stereo not given)
inactive: dose: 100.0 mg/kg/injection, schedule: Q01DX001 (ip), vehicle: Klucel (hydroxypropylcellulose) (HPC) 109 % of control | dose: 200.0 mg/kg/injection, schedule: Q01DX001 (ip), vehicle: Klucel (hydroxypropylcellulose) (HPC) 109 % of control | dose: 400.0 mg/kg/injection, schedule: Q01DX001 (ip), vehicle: Klucel (hydroxypropylcellulose) (HPC) 109 % of control

COc1cc(OC)c(N=Cc2ccc3c(c2)OCO3)cc1Cl
inactive: [9] 100 % of control | [10] 100 % of control

CCOC(=O)N1Cc2cc3ccccc3nc2C1CC(=O)O (stereo not given)
inactive: [9] 100 % of control | [10] 100 % of control | [11] 104 % of control

CC(=O)Oc1cccnc1C(C#N)C#N
inactive: dose: 50.0 mg/kg/injection, schedule: Q01DX005 (ip), vehicle: saline with Tween-80 92 % of control

CCOC(=O)c1cc2c(nn3c(C)cccc23)n(CC)c1=N
inactive: dose: 6.25 mg/kg/injection, schedule: Q01DX001 (ip), vehicle: saline 105 % of control | dose: 12.5 mg/kg/injection, schedule: Q01DX001 (ip), vehicle: saline 122 % of control | dose: 25.0 mg/kg/injection, schedule: Q01DX001 (ip), vehicle: saline 100 % of control

c1ccc(Sc2c(Sc3ccccc3)c(Sc3ccccc3)c(Sc3ccccc3)c(Sc3ccccc3)c2Sc2ccccc2)cc1
inactive: [1] 99 % of control | [2] 101 % of control | [3] 90 % of control

O=C(OC(c1ccccc1)(C(F)(F)F)C(F)(F)F)c1cccc(Cl)c1
inactive: [4] 104 % of control | [5] 109 % of control | [6] 118 % of control

CS(=O)(=O)CC(O)(c1ccccc1)c1ccncc1 (stereo not given)
inactive: [4] 96 % of control | [5] 90 % of control | [6] 98 % of control

COC(=O)C1=C(C)NC(C)=C(C(=O)OC)C(N2C(=O)CCC2=O)C1 (stereo not given)
inactive: [7] 97 % of control | [8] 94 % of control | [4] 95 % of control and 123 % of control | [5] 94 % of control and 107 % of control | [6] 107 % of control

O=[N+]([O-])c1ccc(S(=O)c2ccc([N+](=O)[O-])cc2)cc1
inactive: [12] 100 % of control | [9] 100 % of control | dose: 200.0 mg/kg/injection, schedule: Q01DX009 (ip), vehicle: Klucel (hydroxypropylcellulose) (HPC) 95 % of control | [10] 100 % of control | [11] 100 % of control

C[C@]12CCCC[C@@H]1CC[C@@H]1[C@@H]2[C@@H](O)C[C@]2(C)[C@@H](O)CC[C@@H]12
inactive: [4] 95 % of control and 100 % of control | dose: 50.0 mg/kg/injection, schedule: Q04DX003 (ip), vehicle: saline with Tween-80 100 % of control | dose: 66.0 mg/kg/injection, schedule: Q04DX003 (ip), vehicle: saline with Tween-80 95 % of control | [5] 95 % of control and 100 % of control | [1] 122 % of control | dose: 150.0 mg/kg/injection, schedule: Q04DX003 (ip), vehicle: saline with Tween-80 90 % of control | [6] 90 % of control and 100 % of control | [2] 100 % of control

COc1cccc2c1cc([N+](=O)[O-])c1c(C(=O)O)cc3c(c12)OCO3
inactive: dose: 1.25 mg/kg/injection, schedule: Q01DX010 (ip), vehicle: water 100 % of control | dose: 2.5 mg/kg/injection, schedule: Q01DX010 (ip), vehicle: water 118 % of control | dose: 5.0 mg/kg/injection, schedule: Q01DX010 (ip), vehicle: other 86 % of control

C=CC12COC(=O)C(=C)C1C(O)C(C(=C)C(=O)OC)C(O)C2 (stereo not given)
inactive: dose: 0.5 mg/kg/injection, schedule: Q01DX010 (ip), vehicle: steriod suspending solution 100 % of control | dose: 1.0 mg/kg/injection, schedule: Q01DX010 (ip), vehicle: steriod suspending solution 109 % of control | dose: 2.0 mg/kg/injection, schedule: Q01DX010 (ip), vehicle: steriod suspending solution 100 % of control | dose: 4.0 mg/kg/injection, schedule: Q01DX010 (ip), vehicle: steriod suspending solution 122 % of control | dose: 10.0 mg/kg/injection, schedule: Q01DX010 (ip), vehicle: steriod suspending solution 109 % of control

CCC(c1ccc2cc(OC)ccc2c1)C(CC(=O)O)C(=O)OC (stereo not given)
inactive: [9] 87 % of control | [10] 91 % of control | [11] 91 % of control
